Data as given in US5236901A, “Treatment for irritable bowel syndrome” (Research Corporation Technologies, Inc., priority 1991, dated 1993).
No end group written: not given here.

Tests used:
Sprague-Dawley rats [1] = experiment: Intestinal transit after alpha-helical CRF-(9-41) alone or against exogenous CRF; assay type: in vivo, rat
Procedure: (§1) Gastrointestinal transit, a measure of the propulsive motor activity of the intestine, is evaluated by the geometric center method (Miller et al., 1981, J. Pharmacol. Methods 6:211-217), in which a nonabsorable radioactive marker, ^51 Cr (0.2 ml) as sodium chromate in distilled water, is instilled directly into the proximal duodenum and proximal colon via Silastic cannulas surgically implanted under Equithesin anesthesia 3-5 days earlier. Thirty-five minutes after administration of the chromium, the animals are killed, and the stomach and intestine are removed and counted for gamma radiation. Gastric emptying is evaluated by quantitating the percent radioactivity emptied from the stomach in a 15 minute period. Radiochromium in distilled water (0.2 ml) is administered by oral gavage, and the animals are killed and emptying assessed 15 minutes later. CRF or vehicle is administered intravenously or intracerebroventricularly immediately before ^51 Cr.
Since CRF is likely to play an essential role in initiating both endocrine and autonomic responses to stress, it is probable that CRF mediates the effects of stress on the gut and that blockade of CRF receptors would lessen stress-induced disordered transit. […] The antagonist, alpha-helical CRF-[…] (50 ug, i.v. or i.c.v.), has no effect on small or larger intestinal transit itself when administered into the brain or the bloodstream.

Sprague-Dawley rats [2] = experiment: Wrap-restraint stress-induced intestinal dysfunction, antagonist pretreatment; assay type: in vivo, rat
Procedure: as §1
Wrapping-restraint stress, a relatively mild, nonulcerogenic model of restraint is used in all stress studies. Stressed animals are lightly anesthetized with ether, and their trunk, shoulders, and upper forelimbs are wrapped in a confining harness of masking tape. Control animals are lightly ether anesthetized but are not wrapped. Radiochromium is then administered, and the animals are killed 35 minutes later to assess intestinal transit. All stress experiments are performed in the late afternoon (4:00 to 7:00 PM) due to a strong circadian influence on the degree of intestinal dysfunction associated with stress at different times of the day. […]

pituitary ACTH release = details: Rivier et al., 1984, cited from earlier work
Sprague-Dawley rats [3] = experiment: Gastric emptying of 51Cr after exogenous CRF; assay type: in vivo, rat; details: CRF 1.0 to 10.0 ug i.v. or i.c.v.; FIG. 1A
Procedure: as §1, with “Female Sprague-Dawley rats (150-200 g) are used in all tests described herein. The animals are housed in groups of five in a temperature-controlled room on a 12 hour light-dark cycle (7:00 AM to 7:00 PM) and are allowed water and rat chow ad libitum. Animals are allowed at least one week to recover from shipping before experiments are performed. Gastrointestinal” for “Gastrointestinal”

Sprague-Dawley rats [4] = experiment: Small and large intestinal transit (geometric center method) and fecal output after exogenous CRF; assay type: in vivo, rat
Procedure: as §1, with “Female Sprague-Dawley rats (150-200 g) are used in all tests described herein. The animals are housed in groups of five in a temperature-controlled room on a 12 hour light-dark cycle (7:00 AM to 7:00 PM) and are allowed water and rat chow ad libitum. Animals are allowed at least one week to recover from shipping before experiments are performed. Gastrointestinal” for “Gastrointestinal”

plasma ACTH = experiment: Plasma ACTH concentrations by radioimmunoassay after CRF; assay type: in vivo, rat; details: CRF 0.3 ug i.v.; for Plasma ACTH Concentration: mean ± SE
Procedure: CRF and alpha-helical CRF-(9-41) are purchased from Bachem. Drugs are diluted in distilled water, and NaOH (0.1 N) added to the solution, 1 ul at a time, until the compounds [CRF and alpha-helical CRF-(9-41)]go into solution, at a pH of ~6.8. The solutions are aliquotted into 25- and 50-ug supplies, lyophilized, and stored in a desiccator at 4°-8° C. until needed. Radioimmunoassay kits for determination of plasma levels of ACTH are purchased from ImmunoNuclear.
The following example compares the endocrine response to a low dose of exogenous CRF (0.3 ug i.v.) and to stress-induced release of endogenous CRF by measuring plasma ACTH concentrations by radioimmunoassay in animals that are wrap restrained or treated with CRF.
Blood is drawn from an indwelling jugular cannula, surgically placed under Equithesin anesthesia 3 days earlier. Blood (0.2 ml) is drawn 10 minutes before treatment, as well as 5, 10, 20, 30, 45, and 60 minutes after CRF administration or wrap-restraint stress. Blood is also drawn at the same time points from control animals are briefly ether anesthetized but which are not stressed or drug treated.

[5] = antagonist 50 ug i.v. or i.c.v., CRF 3 and 10 ug i.v. or i.c.v., same route

alpha-helical CRF-(9-41)
Large intestinal transit, antagonist alone (Sprague-Dawley rats [1]; 50 ug, i.v. or i.c.v.): has no effect
Small intestinal transit, antagonist alone (Sprague-Dawley rats [1]; 50 ug, i.v. or i.c.v.): has no effect
Effects of exogenous CRF on large intestinal transit (Sprague-Dawley rats [1]; [5]): effectively antagonizes
Effects of exogenous CRF on small intestinal transit (Sprague-Dawley rats [1]; [5]): effectively antagonizes
Stress-induced inhibition of small intestinal transit (Sprague-Dawley rats [2]; 50 ug i.c.v. or i.v. immediately before stress, FIG. 3A): did not affect
Stress-induced increase in large intestinal transit (Sprague-Dawley rats [2]; 50 ug i.c.v. or i.v. immediately before stress, FIG. 3B): completely blocked
Stress-induced increase in fecal pellet output (Sprague-Dawley rats [2]; 50 ug i.c.v. or i.v. immediately before stress, FIG. 3C): significantly diminished
Stress-induced increase in colonic transit, higher dose versus 50 ug (Sprague-Dawley rats [2]; 100 μg i.c.v.): did not result in a further decrease
Stress-induced increase in fecal excretion, higher dose versus 50 ug (Sprague-Dawley rats [2]; 100 μg i.c.v.): did not result in a further decrease
Stress-induced inhibition of small intestinal transit (Sprague-Dawley rats [2]; 100 μg i.c.v.): did not affect
Agonist activity (pituitary ACTH release): little agonist activity
Effects of CRF and stress on pituitary ACTH release (pituitary ACTH release; both in vivo and in vitro): effectively antagonizes

Corticotropin-releasing factor (SQEPPISLDLTFHLLREVLEMTKADQLAQQAHSNRKLLDIA; ends and bridges not checked; UniProt P01142 148-188, looked up) [CRF, peptide comprising 41 amino acid residues, first characterized from ovine hypothalamic extracts; purchased from Bachem]
Gastric emptying (Sprague-Dawley rats [3]): inhibited in a dose-dependent manner
Response of the gut to CRF compared with restraint stress (Sprague-Dawley rats [4]; CRF 0.3 ug i.c.v., gastric emptying, small and large intestinal transit, fecal pellet output, FIG. 2): identical both in direction and degree
Fecal pellet output (Sprague-Dawley rats [4]; CRF 0.3 to 10.0 ug): increased
Small intestinal transit (Sprague-Dawley rats [4]; CRF 0.3 to 10.0 ug i.v. or i.c.v., FIG. 1B): inhibits
Colonic transit (Sprague-Dawley rats [4]; CRF 0.3 to 10.0 ug i.v. or i.c.v., FIG. 1C): increases
Diarrhea (Sprague-Dawley rats [4]; CRF at higher doses): diarrhea
Lowest effective dose (Sprague-Dawley rats [4]; i.c.v., gastric and intestinal effects): 0.3 µg
Effectiveness of i.v. versus i.c.v. administration (Sprague-Dawley rats [4]; intravenously versus intracerebroventricularly administered CRF): equally effective
Peak levels of ACTH compared with wrap-restraint stress (plasma ACTH): very similar
Time course of ACTH release compared with stress-induced ACTH release (plasma ACTH): more rapid time course
Plasma ACTH Concentration (plasma ACTH; 5 minutes after administration): 619 ± 70 pg/mL
Plasma ACTH Concentration (plasma ACTH; 10 minutes after administration): 494 ± 108 pg/mL
Plasma ACTH Concentration (plasma ACTH; 20 minutes after administration): 265 ± 93 pg/mL
Plasma ACTH Concentration (plasma ACTH; 30 minutes after administration): 174 ± 24 pg/mL
Plasma ACTH Concentration (plasma ACTH; 45 minutes after administration): 146 ± 33 pg/mL
Plasma ACTH Concentration (plasma ACTH; 60 minutes after administration): 141 ± 49 pg/mL
Plasma ACTH Concentration (plasma ACTH; time head +10 (10 minutes before treatment)): 64 ± 4 pg/mL
